# Measured values taken from ChEMBL document CHEMBL1201862, “PubChem BioAssay data set” (2004).
# The source made the active and inactive calls.
# Legend:
# BJ [1] = experiment: cells; type: functional, cell-based; details: Homo sapiens
# [2] = non-specific 3'UTR reporter inhibition in Clone20-Shn3RL – cell-based, Renilla luciferase, cherry-picked, counter-screen for Shn3 inhibitor project, dose response (AID 624133); type: functional
# cells = type: functional, cell-based
# [3] = HEK-293T viability loss after treatment – luminescence, T-cell screen hits, cytotoxicity control for TCR NF-kB inhibitor project, dose response (AID 489026); type: functional, cell-based;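 note: cells exposed to compound about 14 hours before the viability readout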
# [4] = NIH-3T3 fibroblast cytotoxicity, dose response, cytotoxicity control, cell-based, fluorescence, Alamar Blue, secondary assay (AID 2327); type: functional;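 note: NIH-3T3 mouse fibroblasts cultured with fluconazole at 8 µg/mL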
# BJ [5] = experiment: growth inhibition of engineered Ras-driven BJ cells – cell-based, alamar blue fluorescence, cherrypicked samples, dose response (AID 2631); type: functional; details: Homo sapiens;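 note: confirmatory dose-response assay in RAS-dependent BJ fibroblasts engineered with TERT, LT and ST, with cytotoxicity read by fluorescence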
# [6] = target: T1, Sentrin-specific protease 8 (Homo sapiens, UniProt Q96LD8); type: functional;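 note: luminescence read-out of SENP8 inhibition, dose-response confirmation following an ultra-high-throughput screen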
# T1 sequence (Q96LD8 whole entry): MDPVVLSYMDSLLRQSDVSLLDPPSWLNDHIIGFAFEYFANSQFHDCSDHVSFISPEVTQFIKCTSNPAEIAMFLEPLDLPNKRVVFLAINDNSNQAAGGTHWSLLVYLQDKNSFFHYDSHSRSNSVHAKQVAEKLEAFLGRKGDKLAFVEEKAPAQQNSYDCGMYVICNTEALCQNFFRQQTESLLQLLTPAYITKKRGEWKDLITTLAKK
# [7] = target: T2, Sentrin-specific protease 6 (Homo sapiens, UniProt Q9GZR1); type: functional;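 note: Luminescence-based dose-response confirmatory assay of SENP6 inhibition, following up an ultra-high-throughput screen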
# T2 sequence (Q9GZR1 whole entry): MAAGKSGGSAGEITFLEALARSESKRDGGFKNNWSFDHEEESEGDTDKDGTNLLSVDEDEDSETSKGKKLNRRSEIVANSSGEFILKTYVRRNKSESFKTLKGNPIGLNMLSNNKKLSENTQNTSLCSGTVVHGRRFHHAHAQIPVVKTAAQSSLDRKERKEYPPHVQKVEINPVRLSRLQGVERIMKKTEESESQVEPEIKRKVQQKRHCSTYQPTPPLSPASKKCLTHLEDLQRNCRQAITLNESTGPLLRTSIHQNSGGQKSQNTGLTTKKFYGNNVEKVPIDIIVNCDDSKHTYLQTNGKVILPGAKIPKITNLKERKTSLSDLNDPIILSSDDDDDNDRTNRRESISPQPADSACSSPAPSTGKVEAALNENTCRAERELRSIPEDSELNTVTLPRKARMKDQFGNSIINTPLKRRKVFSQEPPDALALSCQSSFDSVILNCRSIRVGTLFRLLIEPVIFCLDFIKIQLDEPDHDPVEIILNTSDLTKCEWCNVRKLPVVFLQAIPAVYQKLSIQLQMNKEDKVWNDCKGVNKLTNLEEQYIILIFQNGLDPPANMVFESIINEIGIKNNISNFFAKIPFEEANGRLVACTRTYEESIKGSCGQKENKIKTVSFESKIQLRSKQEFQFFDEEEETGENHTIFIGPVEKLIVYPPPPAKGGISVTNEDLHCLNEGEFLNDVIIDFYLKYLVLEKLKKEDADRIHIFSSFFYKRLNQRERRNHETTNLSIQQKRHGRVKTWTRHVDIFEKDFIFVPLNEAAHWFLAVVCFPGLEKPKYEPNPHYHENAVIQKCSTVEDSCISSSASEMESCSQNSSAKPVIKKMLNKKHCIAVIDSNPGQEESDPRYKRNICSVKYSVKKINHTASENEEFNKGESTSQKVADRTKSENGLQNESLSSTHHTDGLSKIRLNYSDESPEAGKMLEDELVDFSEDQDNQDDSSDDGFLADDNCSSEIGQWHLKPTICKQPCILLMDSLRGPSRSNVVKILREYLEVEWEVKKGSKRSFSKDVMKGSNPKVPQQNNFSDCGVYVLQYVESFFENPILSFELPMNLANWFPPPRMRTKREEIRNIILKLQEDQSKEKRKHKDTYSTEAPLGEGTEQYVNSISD
# [8] = target: T3, Histone-lysine N-methyltransferase NSD2 (Homo sapiens, UniProt O96028); type: biochemical
# T3 sequence (O96028 whole entry): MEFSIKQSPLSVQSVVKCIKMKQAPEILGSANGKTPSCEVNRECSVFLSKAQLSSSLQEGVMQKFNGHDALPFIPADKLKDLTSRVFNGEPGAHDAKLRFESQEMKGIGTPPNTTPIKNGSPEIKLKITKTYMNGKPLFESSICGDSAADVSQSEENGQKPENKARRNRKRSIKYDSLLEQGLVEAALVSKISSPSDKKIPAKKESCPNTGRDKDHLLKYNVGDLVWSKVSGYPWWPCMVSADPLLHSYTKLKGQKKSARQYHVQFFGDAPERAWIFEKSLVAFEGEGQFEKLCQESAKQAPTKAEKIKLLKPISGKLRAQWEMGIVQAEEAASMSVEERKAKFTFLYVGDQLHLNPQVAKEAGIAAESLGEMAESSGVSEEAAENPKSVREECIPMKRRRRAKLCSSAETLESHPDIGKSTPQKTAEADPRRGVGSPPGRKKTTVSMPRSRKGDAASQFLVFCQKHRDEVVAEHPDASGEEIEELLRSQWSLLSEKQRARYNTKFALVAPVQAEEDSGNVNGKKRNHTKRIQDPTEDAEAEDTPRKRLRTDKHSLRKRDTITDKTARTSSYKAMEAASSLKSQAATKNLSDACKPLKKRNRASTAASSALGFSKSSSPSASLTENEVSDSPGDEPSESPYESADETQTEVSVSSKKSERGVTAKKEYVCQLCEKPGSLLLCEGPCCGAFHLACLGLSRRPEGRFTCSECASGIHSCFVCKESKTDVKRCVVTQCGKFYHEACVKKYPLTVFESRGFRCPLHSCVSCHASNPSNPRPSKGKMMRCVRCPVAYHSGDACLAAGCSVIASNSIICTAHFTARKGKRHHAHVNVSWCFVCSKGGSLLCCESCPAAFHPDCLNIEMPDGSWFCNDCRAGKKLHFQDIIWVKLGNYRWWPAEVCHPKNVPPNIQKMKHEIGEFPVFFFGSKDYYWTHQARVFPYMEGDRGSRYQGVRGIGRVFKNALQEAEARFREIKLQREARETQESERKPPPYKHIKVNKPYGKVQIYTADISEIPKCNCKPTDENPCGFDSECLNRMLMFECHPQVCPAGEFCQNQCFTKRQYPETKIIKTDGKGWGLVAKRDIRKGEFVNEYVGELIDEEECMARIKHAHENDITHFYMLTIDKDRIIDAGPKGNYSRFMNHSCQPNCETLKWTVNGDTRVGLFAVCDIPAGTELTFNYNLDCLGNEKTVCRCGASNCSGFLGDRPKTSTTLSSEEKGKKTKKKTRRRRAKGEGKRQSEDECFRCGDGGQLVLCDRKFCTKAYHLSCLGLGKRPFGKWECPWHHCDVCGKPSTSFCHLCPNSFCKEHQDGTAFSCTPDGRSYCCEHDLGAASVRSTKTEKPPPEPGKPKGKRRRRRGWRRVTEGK
# Caspase-8 = Caspase-8 (Homo sapiens, UniProt Q14790); experiment: inhibitors of purified CASP8 protease – biochemical, Z-IETD-R110 fluorescence, cherry-picked samples, selectivity assay for caspase-6 inhibitor project, dose response (AID 743294)
# Chain of Caspase-8 (Q14790 217-374 limits assumed): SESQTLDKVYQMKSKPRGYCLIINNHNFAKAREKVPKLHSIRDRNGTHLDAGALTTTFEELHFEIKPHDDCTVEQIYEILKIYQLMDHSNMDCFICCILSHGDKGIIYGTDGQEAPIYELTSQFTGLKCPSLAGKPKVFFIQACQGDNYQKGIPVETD
# Chain of Caspase-8 (Q14790 385-479 limits assumed): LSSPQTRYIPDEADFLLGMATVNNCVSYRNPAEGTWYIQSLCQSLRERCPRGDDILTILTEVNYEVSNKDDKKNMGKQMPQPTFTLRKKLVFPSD
Structure (SMILES),EC50 (BJ [1]),AC50 [2],EC50 (cells),IC50 [3],EC50 [4],EC50 (BJ [5]),IC50 [6],IC50 [7],AC50 [8],AC50 (Caspase-8)
CCCCC(=O)NC(c1ccc(N(C)C)cc1)c1ccc2cccnc2c1O (stereo not given),3.12 µM (active),> 70 µM (inactive),3.94 µM (active),> 80 µM (inactive),28.4 µM (inconclusive),0.465 µM (active),,,,
CN(CC(=O)Nc1ccccc1Cl)C(=O)COC(=O)c1ccc([N+](=O)[O-])s1,,,,,,,3.95 µM (active),4.72 µM (active),8.27 µM (active),23.8 µM (active)
